Like-named read-outs stand apart in the source and are kept apart here.
Experiments:
[1] = tested on: SW780 (human bladder cancer) tumors; assay: Fraction of necrosis after calcium electroporation, SW780 tumors; type: in vivo, NMRI-Foxn1^nu mice
Procedure: LPB, a murine sarcoma cell line, B16, a murine malignant melanoma cell line, MDA-MB231, human a breast cancer cell line, HT29, a human colon cancer cell line, and SW780, a human bladder cancer cell line were used for the in vivo experiment. The cells were tested by rapid MAP27 panel (Taconic, Hudson N.Y.) before use without signs of infection. 2×10^5 cells (B16), 8×10^5 cells (LPB), 2.5×10^6 cells (MDA-MB231), and 5×10^6 cells (HT29 and SW780) in 100 μl PBS were injected subcutaneously in the flank of NMRI-Foxn1^nu mice (Harlan, Indianapolis, Ind.) that were 9-11 weeks old. Mice were randomised at a tumor volume above 85 mm^3 and tumors were treated with injection of isotonic calcium-chloride solution (168 mM CaCI2) and electroporation (8 pulses of 1.0 kv/cm for 100 μs and a frequency of 1 Hz) using a 6 mm plate electrode and a square wave electroporator (CLINIPORATOR®, IGEA, Modena, Italy). Tumor volume was calculated as ab^2n/6, where a is the largest diameter and b is the largest diameter perpendicular to a. The injected volume was half of the tumor volume. […] The fraction of necrosis within the tumor was estimated from HE-sections by stereological point counting using a light microscope, evaluated by a pathologist, blinded with respect to treatment status.
The difference in fraction of necrosis at different time after treatment was assessed using student's t-test.

[2] = tested on: DC-3F, K-562 and Lewis Lung Carcinoma cells; assay: In vitro electroporation, MTT viability assay; type: cell-based, Chinese hamster, human, murine
Procedure: Three cell lines are used for in vitro experiments, DC-3F, a transformed Chinese hamster lung fibroblast cell line; K-562, a human leukemia cell line; and Lewis Lung Carcinoma, a murine lung carcinoma cell line. DC-3F cells were tested for mycoplasma in January 2011, K-562 cells were tested for mycoplasma in 2008 prior to freezing and thawing just before experiments were performed, and Lewis Lung cells were tested by rapid MAP27 panel (Taconic, Hudson N.Y.) in July 2011 without signs of infection. Cells are maintained in RPMI 1640 culture medium (GIBCO™, Life Technologies, Carlsbad, Calif.) with 10% fetal calf serum (GIBCO™, Life Technologies, Carlsbad, Calif.), penicillin and streptomycin at 37° C. and 5% C02. After harvesting, cells are washed and diluted in HEPES buffer containing 10 mM HEPES (Lonza, Basel, Switzerland), 250 mM sucrose and 1 mM MgCl2 in sterile water. 270 μl cell suspension (6.1×10^6 cells/ml) and 30 μl CaCl2, or in the case of controls, HEPES buffer, are electroporated in 4 mm wide cuvettes with aluminium electrodes (Molecular BioProducts, Inc., San Diego, Calif.). Cooled cells (8° C.) are exposed to 8 pulses of 1.2 kV/cm with pulse duration of 99 μs (DC-3F and K562 cells) or 8 pulses of 1.4 kV/cm with pulse duration of 99 μs (Lewis Lung Carcinoma) using a BTX® T820 square wave electroporator (BTX®, Harvard Apparatus, Holliston, Mass.). The electroporation parameters are chosen after optimization to obtain high permabilisation and cell survival. After 20 min at 37° C. and 5% CO2 cells are diluted in RPMI 1640 culture medium with 10% fetal calf serum and penicillin-streptomycin and seeded in 96-well plates at a concentration of 3.1×10^4 cells/100 μl.
Difference between electroporated and non-electroporated cells in identical buffer is assessed using two-way analysis of variance (ANOVA) with post least-squares-means test with Bonferroni correction for multiple comparisons.

DC-3F cells = assay: Calcium electroporation with two calcium sources, MTT assay; type: cell-based, Chinese hamster; conditions: 1 mM, 8 pulses, 0-1.6 kV/cm; MTT 1 day after treatment
Procedure: DC-3F cells were electroporated as described in example 1 with 1 mM calcium chloride (prepared by SAD, Denmark) or 1 mM calcium glubionate (Sandoz, Holzkirchen, Germany). The calcium concentration was chosen based on the experiment described in example 1 where 1 mM calcium is the lowest concentration inducing high cell death. The cells were electroporated with 8 pulses of […] at 1 Hz and increasing electric field (0-1.6 kV/cm). After 20 min at 37° C. and 5% CO2 cells were diluted in RPMI 1640 culture medium with 10% fetal calf serum and penicillin-streptomycin and seeded in 96-well plates at a concentration of 3.1×10^4 cells/100 μl.

In the case of [Ca+2].[Cl-].[Cl-] [calcium chloride], the “fraction of necrosis in tumors, course” value ([1]; 168 mM CaCl2, half tumor volume, electroporation, first days after treatment) is reported as “progressive necrosis”, the tumor re-growth ([1]; 6 days after the treatment) is reported as “re-growth” and the EC50 ([2]; all electroporated cell lines, 8 pulses 1.2-1.4 kV/cm, 99 μs, MTT 1 and 2 days after treatment, read-out: EC50 (decrease in viability)) is reported as 570 µM. The “lowest concentration inducing high cell death” value ([2]; electroporated) was 1 mM, the “calcium concentration from which viability decreases significantly (p<0.01)” value ([2]; electroporated, all cell lines) was at least 0.5 mM and the “cell death after calcium electroporation” value ([2]; electroporated, all three cell lines) was “dose dependent cell death”. For the same compound, the “effect on cell viability” value ([2]; non-electroporated cells, high calcium concentrations) was “no effect on cell viability”, the EC50 ([2]; range over the electroporated cell lines, read-out: EC50 range (decrease in viability)) was 350 to 790 µM and the “EC50 (decrease in viability)” value ([2]; without electroporation) was “not reached”. For the same compound, the “effect of calcium electroporation on cell viability, calcium chloride versus calcium glubionate” value (DC-3F cells) was “no difference”.

Source: patent publication US9943599B2, “Therapeutic applications of calcium electroporation to effectively induce tumor necrosis” (Herlev Hospital, priority 2011, dated 2018)
